According to article PMC12029836, “Phytotoxicity, Cytotoxicity, and Antimicrobial Activity of Triethanolammonium Amino Acids Salts” (Molecules, 2025):
“And” between values parts separate entries of the source, which are not always exact repeats. Equal values may be shown once. Read-outs that look alike come from different tables or passages of the source.

Legend:
[1] = tested on: Lepidium sativum L. seeds; conditions: 24 h incubation, mean(±SD), n = 3
[2] = tested on: Lepidium sativum L. roots; conditions: 24 h incubation, mean(±SD), n = 3
S. aureus ATCC 6538 = experiment: Antimicrobial activity, broth microdilution MIC/MBC; format: cell-based, Staphylococcus aureus; conditions: S. aureus ATCC 6538, 24 h at 37 °C, at least 90% growth inhibition; nd—not detected
L929 fibroblasts = experiment: Mammalian cell cytotoxicity screening, resazurin viability; format: cell-based, mouse
E. coli ATCC 8739 = experiment: Antimicrobial activity, broth microdilution MIC/MBC; format: cell-based, Escherichia coli; conditions: nd—not detected; for MIC (%): E. coli ATCC 8739, 24 h at 37 °C, at least 90% growth inhibition; for MBC (%): E. coli ATCC 8739
C. albicans ATCC 10231 = experiment: as above; format: cell-based, Candida albicans; conditions: nd—not detected; for MIC (%): C. albicans ATCC 10231, 24 h at 37 °C, at least 90% growth inhibition
[3] = 0.01% (w/w) compound in the medium
[4] = 0.03% (w/w) compound in the medium
[5] = 0.05% (w/w) compound in the medium
[6] = 0.10% (w/w) compound in the medium
[7] = 0.30% (w/w) compound in the medium
[8] = 0.50% (w/w) compound in the medium
[9] = 1.00% (w/w) compound in the medium
[10] = 2.00% (w/w) compound in the medium
[11] = 3.00% (w/w) compound in the medium
[12] = 4.00% (w/w) compound in the medium
[13] = 5.00% (w/w) compound in the medium

Compound | Inhibition of the Lepidium sativum seeds germination (ISG, %) [1, 3] | Inhibition of the Lepidium sativum seeds germination (ISG, %) [1, 4] | Inhibition of the Lepidium sativum seeds germination (ISG, %) [1, 5] | Inhibition of the Lepidium sativum seeds germination (ISG, %) [1, 6] | Inhibition of the Lepidium sativum seeds germination (ISG, %) [1, 7] | Inhibition of the Lepidium sativum seeds germination (ISG, %) [1, 8] | Inhibition of the Lepidium sativum seeds germination (ISG, %) [1, 9] | Inhibition of the Lepidium sativum seeds germination (ISG, %) [1, 10] | Inhibition of the Lepidium sativum seeds germination (ISG, %) [1, 11] | Inhibition of the Lepidium sativum seeds germination (ISG, %) [1, 12] | Inhibition of the root growth in pregerminated Lepidium sativum seeds (IRG, %) [2, 3] | Inhibition of the root growth in pregerminated Lepidium sativum seeds (IRG, %) [2, 4] | Inhibition of the root growth in pregerminated Lepidium sativum seeds (IRG, %) [2, 5] | Inhibition of the root growth in pregerminated Lepidium sativum seeds (IRG, %) [2, 6] | Inhibition of the root growth in pregerminated Lepidium sativum seeds (IRG, %) [2, 7] | Inhibition of the root growth in pregerminated Lepidium sativum seeds (IRG, %) [2, 8] | Inhibition of the root growth in pregerminated Lepidium sativum seeds (IRG, %) [2, 10] | Inhibition of the root growth in pregerminated Lepidium sativum seeds (IRG, %) [2, 11] | Inhibition of the root growth in pregerminated Lepidium sativum seeds (IRG, %) [2, 12] | Inhibition of the root growth in pregerminated Lepidium sativum seeds (IRG, %) [2, 13] | also measured
CC(N)C(=O)O.OCCN(CCO)CCO [[TEA][Ala]] | 0.0(±1.2) % | 0.0(±0.8) % | 0.0(±1.2) % | 0.0(±0.8) % | 0.0(±0.5) % | 9.4(±1.4) % | 11.8(±1.6) % | 17.7(±0.8) % | 64.7(±0.8) % | 88.3(±1.3) % | 0.0(±0.0) % | 0.0(±0.0) % | 14.8(±1.5) % | 19.7(±1.4) % | 27.9(±1.2) % | 36.1(±1.2) % | 67.2(±1.0) % | 77.6(±0.6) % | 79.3(±0.6) % | 89.7(±0.5) % | Inhibition of the Lepidium sativum seeds germination (ISG, %) [1, 13]: 100.0(±0.5) %; Inhibition of the root growth in pregerminated Lepidium sativum seeds (IRG, %) [2, 9]: 55.2(±0.8) %; MIC (%) (S. aureus ATCC 6538): 7.50%; ED20 (L929 fibroblasts; 24h exposure): 0.54±0.06%; ED50 (L929 fibroblasts; 24h exposure): 0.57±0.04%; ED80 (L929 fibroblasts; 24h exposure): 0.59±0.11%; ED20 (L929 fibroblasts; 48h exposure): 0.25±0.03%; ED50 (L929 fibroblasts; 48h exposure): 0.42±0.02%; ED80 (L929 fibroblasts; 48h exposure): 0.63±0.03%; MIC (%) (E. coli ATCC 8739): 3.75%; MBC (%) (E. coli ATCC 8739): 7.50%; MIC (%) (C. albicans ATCC 10231): 1.88%
N[C@@H](CC(=O)O)C(=O)O.OCCN(CCO)CCO [[TEA][Asp]] | 0.0(±0.0) % | 0.0(±0.0) % | 0.0(±0.0) % | 0.0(±0.0) % | 0.0(±0.0) % | 0.0(±0.0) % | 0.0(±0.0) % | 0.0(±0.0) % | 3.5% | 16.2(±1.3) % | 0.0(±0.0) % and 0% | 0.0(±0.0) % and 0% | 0.0(±0.0) % and 0% | 0.0(±0.0) % and 0% | 9.1% | 12.9% | 43.9(±1.3) % | 44.2(±1.0) % | 56.3(±1.0) % | 68.3% | MIC (%) (S. aureus ATCC 6538): 15%; ED20 (L929 fibroblasts; 24h exposure): 0.47±0.03%; ED50 (L929 fibroblasts; 24h exposure): 0.66±0.03%; ED80 (L929 fibroblasts; 24h exposure): 0.86±0.09%; ED20 (L929 fibroblasts; 48h exposure): 0.30±0.02%; ED50 (L929 fibroblasts; 48h exposure): 0.50±0.01%; ED80 (L929 fibroblasts; 48h exposure): 0.71±0.01%; MIC (%) (E. coli ATCC 8739): 7.50%; MBC (%) (E. coli ATCC 8739): 15%; MIC (%) (C. albicans ATCC 10231): 15%; MBC (%) (C. albicans ATCC 10231; C. albicans ATCC 10231): 15%
NCCCC[C@H](N)C(=O)O.OCCN(CCO)CCO [[TEA][Lys]] | 0.0(±0.0) % | 0.0(±0.0) % | 0.0(±0.0) % | 0.0(±0.0) % | 0.0(±0.0) % | 0.0(±0.0) % | 1.9(±0.8) % | 11.5% | 38.5% | 57.7(±3.1) % | 9.2(±1.9) % | 14.6(±2.1) % | 20.0(±1.9) % | 24.5(±1.9) % | 52.7(±1.7) % | 62.3(±1.2) % | 78.9(±0.8) % | 84.9(±0.8) % | 90.2(±0.6) % | 94.9(±0.5) % | Inhibition of the root growth in pregerminated Lepidium sativum seeds (IRG, %) [2, 9]: 63.5(±0.9) %; MIC (%) (S. aureus ATCC 6538): 1.88%; ED20 (L929 fibroblasts; 24h exposure): 0.23±0.01%; ED50 (L929 fibroblasts; 24h exposure): 0.43±0.01%; ED80 (L929 fibroblasts; 24h exposure): 0.69±0.02%; ED20 (L929 fibroblasts; 48h exposure): 0.21±0.01%; ED50 (L929 fibroblasts; 48h exposure): 0.33±0.01%; ED80 (L929 fibroblasts; 48h exposure): 0.46±0.01%; MIC (%) (E. coli ATCC 8739): 0.94%; MBC (%) (E. coli ATCC 8739): 3.75%; MIC (%) (C. albicans ATCC 10231): 0.94%
O=C(O)[C@@H]1CCCN1.OCCN(CCO)CCO [[TEA][Pro]] | 3.7(±0.5) % | 6.5(±0.5) % | 9.3(±0.5) % | 16.7(±0.8) % | 18.5(±0.5) % | 20.4(±1.3) % | 25.9(±1.3) % | 29.6(±0.9) % | 40.7(±0.5) % | 51.9(±0.5) % | 0.0(±0.0) % | 20.7(±2.1) % | 27.3(±2.2) % | 39.5(±1.9) % | 57.5(±1.5) % | 67.7(±1.1) % | 83.0(±0.7) % | 88.2(±0.6) % | 90.1(±0.8) % | 92.0(±0.7) % | Inhibition of the Lepidium sativum seeds germination (ISG, %) [1, 13]: 79.6(±0.5) %; Inhibition of the root growth in pregerminated Lepidium sativum seeds (IRG, %) [2, 9]: 74.5(±1.2) %; MIC (%) (S. aureus ATCC 6538): 7.50%; ED20 (L929 fibroblasts; 24h exposure): 0.32±0.05%; ED50 (L929 fibroblasts; 24h exposure): 0.56±0.04%; ED80 (L929 fibroblasts; 24h exposure): 0.86±0.14%; ED20 (L929 fibroblasts; 48h exposure): 0.35±0.04%; ED50 (L929 fibroblasts; 48h exposure): 0.64±0.04%; ED80 (L929 fibroblasts; 48h exposure): 1.00±0.13%; MIC (%) (E. coli ATCC 8739): 7.50%; MBC (%) (E. coli ATCC 8739): 7.50%; MIC (%) (C. albicans ATCC 10231): 7.50%
